Patent US4752614A, “Pharmaceutical compositions of tellerium and selenium compounds for the induction of in vivo and in vitro production of cytokines” (Bar-Ilan University, priority 1987, dated 1988)
Values joined by “and” are separate entries in the source; they are usually repeats but may differ in a detail not shown here. Equal entries are not always repeated.

Test system: IL-2 receptors
Assay: Induction of IL-2 receptors of human mononuclear cells, proliferation with recombinant IL-2 (Example 18)
Format: cell-based
Method: Human MNC were brought to a concentration of 10^6 cells/ml. RPMI+10% FCS. Aliquots of 0.2 ml. were placed in duplicate wells of microdishes and plates were incubated at 37° C. for 24 hrs. […] Plates were further incubated for 48 hrs. and labelled with 3H thymidine 24 hrs. before harvesting.
The proliferation was measured by ^3 HT uptake as described by Gillis et al, J. Immunol. […] The results are expressed in counts per minute.

## Cl[TeH]1(Cl)(Cl)OCCO1 [Example 1]
Test A, 1 μg/ml
  proliferation (3HT uptake): 28625 counts per minute and 27593 counts per minute
Test A, 1 × 10^-3 μg/ml
  proliferation (3HT uptake): 3652 counts per minute and 5055 counts per minute
Test A, 1 × 10^-4 μg/ml
  proliferation (3HT uptake): 3558 counts per minute and 4047 counts per minute
Test A, 1 × 10^-5 μg/ml
  proliferation (3HT uptake): 2474 counts per minute and 4063 counts per minute
Test A, 5 × 10^-1 μg/ml
  proliferation (3HT uptake): 120755 counts per minute and 105943 counts per minute
Test B, 1 μg/ml
  proliferation (3HT uptake): 23488 counts per minute
Test B, 1 × 10^-2 μg/ml
  proliferation (3HT uptake): 6057 counts per minute
Test B, 1 × 10^-3 μg/ml
  proliferation (3HT uptake): 5865 counts per minute
Test B, 1 × 10^-4 μg/ml
  proliferation (3HT uptake): 4960 counts per minute
Test B, 1 × 10^-5 μg/ml
  proliferation (3HT uptake): 7155 counts per minute
Test B, 5 × 10^-1 μg/ml
  proliferation (3HT uptake): 66910 counts per minute
Test B, 5 × 10^-2 μg/ml
  proliferation (3HT uptake): 5390 counts per minute
Test B, 7 × 10^-1 μg/ml
  proliferation (3HT uptake): 17620 counts per minute
